Data taken from ChEMBL document CHEMBL5724696, “Autophagy assay results for EUbOPEN Chemogenomics Library” (2024).
Where “and” joins values, the source holds several entries; their conditions need not be identical. Equal entries are not always repeated.

Assays:
Format in all cases: functional, Homo sapiens
[1] = system: U2OS; test: (§1) Here: values are normalized to the negative (DMSO; defined as 0% autophagy induction) and positive (250nM Torin1; mTOR inhibitor; defined as maximal inducer of autophagy = 100%) control compounds and represented as % of autophagy induction. […] The impact of autophagy induction on cells is complex and depends on the affected target. As such, the magnitude of a phenotype may not be equally mirrored in the %-value of autophagy induction and vice versa. The dynamics of the induction may indicate the mode of activation: e.g. activation via phosphorylation or a signaling cascade may occur fast, while activation via transcription factors may take considerably longer. […] Of note, treatment concentrations may be sub-optimal for specific compounds, leading to false negative annotations.; settings: Culturing Media DMEM, 1 % Penicillin/Streptomycin, 10% Fetal bovin serum Add-On: No, Screening Media Control DMEM, Screening Media Samples DMEM
[2] = system: TERT-RPE1; test: as §1; settings: Culturing Media DMEM/F12 (1:1), 1 % Penicillin/Streptomycin, 10% Fetal bovin serum Add-On: No, Screening Media Control DMEM/F12 (1:1), Screening Media Samples DMEM/F12 (1:1)
[3] = system: U2OS; test: as §1; settings: Culturing Media DMEM, 1 % Penicillin/Streptomycin, 10% Fetal bovin serum Add-On: No, Screening Media Control DMEM, Screening Media Samples DMEM; remark: listed apart in the source
[4] = Compound Concentration 0.5 uM, Timepoint 12 hours
[5] = Compound Concentration 0.5 uM, Timepoint 24 hours
[6] = Compound Concentration 0.5 uM, Timepoint 36 hours
[7] = Compound Concentration 0.5 uM, Timepoint 60 hours
[8] = Compound Concentration 2 uM, Timepoint 12 hours
[9] = Compound Concentration 2 uM, Timepoint 24 hours
[10] = Compound Concentration 2 uM, Timepoint 36 hours
[11] = Compound Concentration 2 uM, Timepoint 60 hours
[12] = Compound Concentration 10 uM, Timepoint 12 hours
[13] = Compound Concentration 10 uM, Timepoint 24 hours
[14] = Compound Concentration 10 uM, Timepoint 36 hours
[15] = Compound Concentration 10 uM, Timepoint 60 hours
[16] = Compound Concentration 0.5 uM, Timepoint 12 hours, 12 h, 0.5 µM
[17] = Compound Concentration 0.5 uM, Timepoint 24 hours, 24 h, 0.5 µM
[18] = Compound Concentration 0.5 uM, Timepoint 36 hours, 36 h, 0.5 µM
[19] = Compound Concentration 0.5 uM, Timepoint 60 hours, 60 h, 0.5 µM
[20] = Compound Concentration 2 uM, Timepoint 12 hours, 12 h, 2 µM
[21] = Compound Concentration 2 uM, Timepoint 24 hours, 24 h, 2 µM
[22] = Compound Concentration 2 uM, Timepoint 36 hours, 36 h, 2 µM
[23] = Compound Concentration 2 uM, Timepoint 60 hours, 60 h, 2 µM
[24] = Compound Concentration 10 uM, Timepoint 12 hours, 12 h, 10 µM
[25] = Compound Concentration 10 uM, Timepoint 24 hours, 24 h, 10 µM
[26] = Compound Concentration 10 uM, Timepoint 36 hours, 36 h, 10 µM
[27] = Compound Concentration 10 uM, Timepoint 60 hours, 60 h, 10 µM

## COc1ccc(NS(=O)(=O)c2sc3ccc(Cl)cc3c2C)cc1N1CCNCC1.Cl
[1]; [4]
  autophagy induction: -11.3104%
[1]; [5]
  autophagy induction: -5.358%
[1]; [6]
  autophagy induction: -7.917%
[1]; [7]
  autophagy induction: -7.314%
[1]; [8]
  autophagy induction: 6.008%
[1]; [9]
  autophagy induction: 2.399%
[1]; [10]
  autophagy induction: -3.71%
[1]; [11]
  autophagy induction: -14.5759%
[1]; [12]
  autophagy induction: 10.7956%
[1]; [13]
  autophagy induction: 3.064%
[1]; [14]
  autophagy induction: -4.691%
[1]; [15]
  autophagy induction: -6.499%
[2]; [16]
  autophagy induction: -2.268% and 1.364%
[2]; [17]
  autophagy induction: -0.6721% and -2.131%
[2]; [18]
  autophagy induction: -2.429% and -0.9432%
[2]; [19]
  autophagy induction: -2.224% and -1.994%
[2]; [20]
  autophagy induction: 1.355% and 0.7844%
[2]; [21]
  autophagy induction: 2.1639% and -0.4459%
[2]; [22]
  autophagy induction: 0.7328% and -1.399%
[2]; [23]
  autophagy induction: 3.483% and -0.5872%
[2]; [24]
  autophagy induction: 10.6024% and -4.741%
[2]; [25]
  autophagy induction: 10.2969% and -5.794%
[2]; [26]
  autophagy induction: 13.8741% and -5.163%
[2]; [27]
  autophagy induction: 16.669% and -5.902%
[3]; [4]
  autophagy induction: 2.987%
[3]; [5]
  autophagy induction: -0.6318%
[3]; [6]
  autophagy induction: -59.945%
[3]; [7]
  autophagy induction: -1.761%
[3]; [8]
  autophagy induction: 6.036%
[3]; [9]
  autophagy induction: -0.4148%
[3]; [10]
  autophagy induction: -59.1656%
[3]; [11]
  autophagy induction: -2.731%
[3]; [12]
  autophagy induction: 1.788%
[3]; [13]
  autophagy induction: 0.7642%
[3]; [14]
  autophagy induction: -61.0668%
[3]; [15]
  autophagy induction: -6.058%

## Cc1c(F)cccc1NC(=O)Nc1ccc(Cl)c(S(=O)(=O)[C@H]2CCCNC2)c1O [DANIRIXIN]
[1]; [4]
  autophagy induction: -10.8402%
[1]; [5]
  autophagy induction: -17.1359%
[1]; [6]
  autophagy induction: -12.7926%
[1]; [7]
  autophagy induction: -5.9905%
[1]; [8]
  autophagy induction: -6.206%
[1]; [9]
  autophagy induction: -10.5833%
[1]; [10]
  autophagy induction: -10.8283%
[1]; [11]
  autophagy induction: -13.8786%
[1]; [12]
  autophagy induction: -11.164%
[1]; [13]
  autophagy induction: -5.925%
[1]; [14]
  autophagy induction: -8.152%
[1]; [15]
  autophagy induction: -8.851%
[2]; [16]
  autophagy induction: -1.988% and 1.2715%
[2]; [17]
  autophagy induction: -2.9066% and -1.048%
[2]; [18]
  autophagy induction: -6.399% and -2.355%
[2]; [19]
  autophagy induction: -5.802% and -6.526%
[2]; [20]
  autophagy induction: -2.5% and 0.287%
[2]; [21]
  autophagy induction: -3.213% and -0.8718%
[2]; [22]
  autophagy induction: -5.9285% and 0.3135%
[2]; [23]
  autophagy induction: -6.839% and -1.623%
[2]; [24]
  autophagy induction: 1.595% and 0.8887%
[2]; [25]
  autophagy induction: 3.736% and 2.2115%
[2]; [26]
  autophagy induction: 4.117% and 5.758%
[2]; [27]
  autophagy induction: 6.176% and 5.1403%
[3]; [4]
  autophagy induction: 3.972%
[3]; [5]
  autophagy induction: -2.873%
[3]; [6]
  autophagy induction: -59.8201%
[3]; [7]
  autophagy induction: -1.181%
[3]; [8]
  autophagy induction: -1.664%
[3]; [9]
  autophagy induction: -3.195%
[3]; [10]
  autophagy induction: -60.7356%
[3]; [11]
  autophagy induction: -1.731%
[3]; [12]
  autophagy induction: -5.705%
[3]; [13]
  autophagy induction: -2.005%
[3]; [14]
  autophagy induction: -60.1624%
[3]; [15]
  autophagy induction: -1.218%
